What was measured:
LoVo-Dox = assay: SRB colorimetric cell growth inhibition assay, LoVo-Dox (MDR); assay type: cell-based; details: Homo sapiens, LOVO-DOX
In short: (§1)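 Continuous drug exposure of human cancer cells; SRB protein stain read-out; triplicate wells, mean ± SD; GI, TGI, LC computed.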

PANC-1 = assay: SRB colorimetric cell growth inhibition assay, PANC-1; assay type: cell-based; details: Homo sapiens, PANC-1, PANC-1
In short: as §1

IGROV = assay: SRB colorimetric cell growth inhibition assay, IGROV; assay type: cell-based; details: Homo sapiens, IGROV
In short: as §1

IGROV-ET = assay: SRB colorimetric cell growth inhibition assay, IGROV-ET (ET-743 resistant); assay type: cell-based; details: Homo sapiens, IGROV-ET
In short: as §1

LoVo = assay: SRB colorimetric cell growth inhibition assay, LoVo; assay type: cell-based; details: Homo sapiens, LoVo
In short: as §1

K-562 = assay: SRB colorimetric cell growth inhibition assay, K-562; assay type: cell-based; details: Homo sapiens, K562, K-562
In short: as §1

HT-29 = assay: SRB colorimetric cell growth inhibition assay, HT-29; assay type: cell-based; details: Homo sapiens, HT-29, HT-29
In short: as §1

SK-BR-3 = assay: SRB colorimetric cell growth inhibition assay, SK-BR-3; assay type: cell-based; details: Homo sapiens, SK-BR-3, SK-BR-3
In short: as §1

human topoisomerase I = target: T1, human topoisomerase I (Homo sapiens, UniProt P11387); assay: Topoisomerase I DNA relaxation assay (supercoiled plasmid DNA); assay type: biochemical; details: supercoiled plasmid DNA, each compound tested at 1 μM, agarose gel with ethidium bromide
T1 sequence (P11387 1-765): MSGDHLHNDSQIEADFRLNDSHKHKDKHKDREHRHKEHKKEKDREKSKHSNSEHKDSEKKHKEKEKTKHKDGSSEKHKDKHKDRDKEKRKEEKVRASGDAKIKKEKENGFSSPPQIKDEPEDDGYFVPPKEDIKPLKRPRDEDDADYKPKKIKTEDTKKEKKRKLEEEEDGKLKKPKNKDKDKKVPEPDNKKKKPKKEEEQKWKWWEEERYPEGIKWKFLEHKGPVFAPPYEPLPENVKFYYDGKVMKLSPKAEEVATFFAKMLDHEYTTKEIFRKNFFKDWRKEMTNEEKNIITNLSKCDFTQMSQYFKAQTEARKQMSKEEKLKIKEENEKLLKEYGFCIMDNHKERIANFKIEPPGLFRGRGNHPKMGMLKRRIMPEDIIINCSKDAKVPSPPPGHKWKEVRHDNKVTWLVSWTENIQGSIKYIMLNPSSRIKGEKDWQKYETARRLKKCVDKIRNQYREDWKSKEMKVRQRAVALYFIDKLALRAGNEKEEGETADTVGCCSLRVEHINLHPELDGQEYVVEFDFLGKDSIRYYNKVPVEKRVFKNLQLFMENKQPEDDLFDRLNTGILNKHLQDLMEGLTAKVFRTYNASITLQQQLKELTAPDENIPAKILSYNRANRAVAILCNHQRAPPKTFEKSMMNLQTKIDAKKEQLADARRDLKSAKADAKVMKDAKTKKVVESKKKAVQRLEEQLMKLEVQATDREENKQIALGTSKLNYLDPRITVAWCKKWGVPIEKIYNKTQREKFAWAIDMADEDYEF
In short: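 Test compounds (1 μM each) were present during topoisomerase I relaxation of supercoiled plasmid DNA. Relaxation was assessed on ethidium bromide-stained agarose gels.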

DU-145 = assay: SRB colorimetric cell growth inhibition assay, DU-145; assay type: cell-based; details: Homo sapiens, DU-145, DU-145
In short: as §1

A-549 = assay: SRB colorimetric cell growth inhibition assay, A-549; assay type: cell-based; details: Homo sapiens, A549, A-549
In short: as §1

SK-MEL-28 = assay: SRB colorimetric cell growth inhibition assay, SK-MEL-28; assay type: cell-based; details: Homo sapiens, SK-MEL-28, MEL-28
In short: as §1

LNCaP = assay: SRB colorimetric cell growth inhibition assay, LNCaP; assay type: cell-based; details: Homo sapiens, LNCaP, LN-caP
In short: as §1

## COc1cc(-c2c3c4cc(OC)c(OC(=O)[C@H](N)C(C)C)cc4oc(=O)c3n3ccc4cc(OC(=O)[C@H](N)C(C)C)c(OC)cc4c23)ccc1OC(=O)[C@H](N)C(C)C [Compound 17]
LoVo-Dox; GI=growth inhibition, read-out: GI50 LOVO-DOX
  GI50: 0.384 µM
LoVo-Dox; cell killing (cytotoxic effect), read-out: LC50 LOVO-DOX
  CC50: 5.29 µM
LoVo-Dox; total growth inhibition (cytostatic effect), read-out: TGI LOVO-DOX
  IC (TGI): 1.33 µM
PANC-1; GI=growth inhibition, read-out: GI50 PANC-1
  GI50: 0.206 µM
PANC-1; cell killing (cytotoxic effect), read-out: LC50 PANC-1
  CC50: 8.53 µM
PANC-1; total growth inhibition (cytostatic effect), read-out: TGI PANC-1
  IC (TGI): 1.52 µM
IGROV; GI=growth inhibition, read-out: GI50 IGROV
  GI50: 0.105 µM
IGROV; cell killing (cytotoxic effect), read-out: LC50 IGROV
  CC50: 4.93 µM
IGROV; total growth inhibition (cytostatic effect), read-out: TGI IGROV
  IC (TGI): 0.405 µM
IGROV-ET; GI=growth inhibition, read-out: GI50 IGROV-ET
  GI50: 0.162 µM
IGROV-ET; cell killing (cytotoxic effect), read-out: LC50 IGROV-ET
  CC50: 8.78 µM
IGROV-ET; total growth inhibition (cytostatic effect), read-out: TGI IGROV-ET
  IC (TGI): 0.544 µM
LoVo; GI=growth inhibition, read-out: GI50 LOVO
  GI50: 0.216 µM
LoVo; cell killing (cytotoxic effect), read-out: LC50 LOVO
  CC50: 0.816 µM
LoVo; total growth inhibition (cytostatic effect), read-out: TGI LOVO
  IC (TGI): 0.42 µM
K-562; GI=growth inhibition, read-out: GI50 K-562
  GI50: 0.0536 µM
K-562; cell killing (cytotoxic effect), read-out: LC50 K-562
  CC50: 2.5 µM
K-562; total growth inhibition (cytostatic effect), read-out: TGI K-562
  IC (TGI): 0.277 µM
HT-29; GI=growth inhibition, read-out: GI50 HT-29
  GI50: 0.342 µM
HT-29; cell killing (cytotoxic effect), read-out: LC50 HT-29
  CC50: 8.78 µM
HT-29; total growth inhibition (cytostatic effect), read-out: TGI HT-29
  IC (TGI): 0.686 µM
SK-BR-3; GI=growth inhibition, read-out: GI50 SK-BR-3
  GI50: 0.0803 µM
SK-BR-3; cell killing (cytotoxic effect), read-out: LC50 SK-BR-3
  CC50: 1.22 µM
SK-BR-3; total growth inhibition (cytostatic effect), read-out: TGI SK-BR-3
  IC (TGI): 0.286 µM
Human topoisomerase I
  stimulation of DNA cleavage by topoisomerase I / inhibition of topoisomerase I (nicked DNA band) in DNA relaxation assay: stimulated DNA cleavage by the enzyme
DU-145; GI=growth inhibition, read-out: GI50 DU-145
  GI50: 0.0487 µM
DU-145; cell killing (cytotoxic effect), read-out: LC50 DU-145
  CC50: 2.3 µM
DU-145; total growth inhibition (cytostatic effect), read-out: TGI DU-145
  IC (TGI): 0.228 µM
A-549; GI=growth inhibition, read-out: GI50 A-549
  GI50: 0.207 µM
A-549; cell killing (cytotoxic effect), read-out: LC50 A-549
  CC50: 8.48 µM
A-549; total growth inhibition (cytostatic effect), read-out: TGI A-549
  IC (TGI): 0.663 µM
SK-MEL-28; GI=growth inhibition, read-out: GI50 MEL-28
  GI50: 0.0518 µM
SK-MEL-28; cell killing (cytotoxic effect), read-out: LC50 MEL-28
  CC50: 0.766 µM
SK-MEL-28; total growth inhibition (cytostatic effect), read-out: TGI MEL-28
  IC (TGI): 0.171 µM
LNCaP; GI=growth inhibition, read-out: GI50 LN-caP
  GI50: 0.132 µM
LNCaP; cell killing (cytotoxic effect), read-out: LC50 LN-caP
  CC50: 0.599 µM
LNCaP; total growth inhibition (cytostatic effect), read-out: TGI LN-caP
  IC (TGI): 0.281 µM

From US7396837B2, “Antitumoral analogs of lamellarins” (Pharma Mar, S.A.U., priority 2002, dated 2008)
